Source: patent US8871208B2, “11-β-hydroxysteroid dehydrogenase type 1 (11β-HSD1) inhibitors and uses thereof” (AbbVie Inc., priority 2009, dated 2014)
Like-named read-outs stand apart in the source and are kept apart here.

Key:
human 11β-HSD-2 = molecular target: T1, human 11β-HSD-2 (Homo sapiens, UniProt P80365); assay: Human 11β-HSD-2 enzymatic SPA assay; assay type: biochemical
T1 sequence (P80365 1-405): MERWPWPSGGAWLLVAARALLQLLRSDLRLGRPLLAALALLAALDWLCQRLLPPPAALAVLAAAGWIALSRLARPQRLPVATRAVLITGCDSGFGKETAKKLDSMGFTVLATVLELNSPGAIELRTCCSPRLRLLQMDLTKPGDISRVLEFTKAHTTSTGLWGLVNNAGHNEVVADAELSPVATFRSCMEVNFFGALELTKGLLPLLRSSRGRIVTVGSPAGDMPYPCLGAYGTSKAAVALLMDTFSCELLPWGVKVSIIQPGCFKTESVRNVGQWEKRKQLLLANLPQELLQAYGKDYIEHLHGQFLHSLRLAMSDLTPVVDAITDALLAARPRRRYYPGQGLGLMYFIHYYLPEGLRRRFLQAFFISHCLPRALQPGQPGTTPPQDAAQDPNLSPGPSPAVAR
Protocol: (§1) The ability of test compounds to inhibit human 11β-HSD-1 enzymatic activity in vitro was evaluated in a Scintillation Proximity Assay (SPA). […] The reaction was stopped by adding a non-specific 11β-HSD inhibitor, 18β-glycyrrhetinic acid. The tritiated cortisol was captured by a mixture of an anti-cortisol monoclonal antibody and SPA beads coated with anti-mouse antibodies. The reaction plate was shaken at room temperature and the radioactivity bound to SPA beads was then measured on a β-scintillation counter. The 11β-HSD-1 assay was carried out in 96-well microtiter plates in a total volume of 220 μl. […] In order to drive the reaction in the forward direction, 1 mM G-6-P was also added. Solid compound was dissolved in DMSO to make a 10 mM stock followed by a subsequent 10-fold dilution with 3% DMSO in Tris/EDTA buffer (pH 7.4). 22 μl of titrated compounds was then added in triplicate to the substrate. Reactions were initiated by the addition of 10 μl of 0.1 mg/ml E. coli lysates overexpressing 11β-HSD-1 enzyme. After shaking and incubating plates for 30 minutes at room temperature, reactions were stopped by adding 10 μl of 1 mM glycyrrhetinic acid. The product, tritiated cortisol, was captured by adding 10 μl of 1 μM monoclonal anti-cortisol antibodies and 100 μl SPA beads coated with anti-mouse antibodies. After shaking for 30 minutes, plates were read on a liquid scintillation counter Topcount. Percent inhibition was calculated based on the background and the maximal signal. Wells that contained substrate without compound or enzyme were used as the background, while the wells that contained substrate and enzyme without any compound were considered as maximal signal. Percent of inhibition of each compound was calculated relative to the maximal signal and IC50 curves were generated. This assay was applied to 11β-HSD-2 as well, whereby tritiated cortisol and NAD^+ were used as substrate and cofactor, respectively.

[1] = molecular target: T2, truncated human 11β-HSD-1 enzyme (24-287AA) (Homo sapiens, UniProt P28845); assay: Human 11β-HSD-1 enzymatic SPA assay; assay type: biochemical
T2 construct: truncated human 11β-HSD-1 enzyme (24-287AA); made in house; host or cells: E. coli (lysate)
T2 sequence (P28845 24-287): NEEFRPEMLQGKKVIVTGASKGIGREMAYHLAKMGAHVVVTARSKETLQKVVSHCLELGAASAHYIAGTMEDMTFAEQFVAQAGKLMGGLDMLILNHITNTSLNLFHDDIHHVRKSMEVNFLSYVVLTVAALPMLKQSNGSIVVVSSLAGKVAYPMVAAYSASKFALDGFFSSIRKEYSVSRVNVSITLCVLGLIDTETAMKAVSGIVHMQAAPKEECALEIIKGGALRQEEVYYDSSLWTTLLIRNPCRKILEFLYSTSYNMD
Protocol: as §1

Row | Structure (SMILES) | IC50 (human 11β-HSD-2; human enzyme, SPA) [nM] | IC50 ([1]; human enzyme, SPA) [nM] | IC50 (human 11β-HSD-2) [nM] | IC50 [1] [nM]
1 | CN(CC1CN(C2CCCCCC2)C(=O)C1(C)C)c1ccccc1F (stereo not drawn) [1-cycloheptyl-4-{[(2-fluorophenyl)(methyl)amino]methyl}-3,3-dimethylpyrrolidin-2-one] | > 10000 | 73 |  | 
2 | CC(C)(Oc1ccc(Cl)cc1)C(=O)NC1C2CC3CC1CC(Cc1nn[nH]n1)(C3)C2 (stereo not drawn) [2-(4-chlorophenoxy)-2-methyl-N-[(E)-5-(2H-tetraazol-5-ylmethyl)-2-adamantyl]propanamide] | > 100000 | 41 |  | 
3 | CC(C(=O)N[C@@H]1[C@@H]2C[C@@H]3C[C@H]1C[C@@](O)(C3)C2)N1C[C@@H](C)O[C@@H](C)C1 (stereo partly drawn) [2-[(cis)-2,6-dimethylmorpholin-4-yl]-N-[(E)-5-hydroxy-2-adamantyl]propanamide] | > 10000 | 110 |  | 
4 | CC(C(=O)NC1C2CC3CC1CC(O)(C3)C2)N1CCCCCC1 (stereo not drawn) [2-azepan-1-yl-N-[(E)-5-hydroxy-2-adamantyl]propanamide] | > 10000 | 92 |  | 
5 | CC1(C)C(=O)N(C2C3CCCC2CC(C(N)=O)C3)CC1COc1ccc(C#N)cn1 (stereo not drawn) [9-(4-{[(5-cyanopyridin-2-yl)oxy]methyl}-3,3-dimethyl-2-oxopyrrolidin-1-yl)bicyclo[3.3.1]nonane-3-carboxamide] |  |  | 8280 | 51
6 | CC(C)(C(=O)N[C@@H]1[C@@H]2C[C@@H]3C[C@H]1C[C@@](C(=O)O)(C3)C2)c1ccccc1 [(E)-4-(2-methyl-2-phenyl-propionylamino)-adamantane-1-carboxylic acid] | > 10000 | 82 |  | 
7 | CC(C)(C(=O)NC1C2CC3CC1CC(C(=O)O)(C3)C2)N1CCC(F)C1 [(E)-4-({2-[(3R)-3-Fluoropyrrolidin-1-yl]-2-methylpropanoyl}amino)adamantane-1-carboxylic acid] | > 10000 | 58 |  | 
8 | CC1CN(c2ccccn2)CCN1C(C)(C)C(=O)NC1C2CC3CC1CC(C(=O)O)(C3)C2 [(E)-4-({2-methyl-2-[(2S)-2-methyl-4-pyridin-2-ylpiperazin-1-yl]propanoyl}amino) adamantane-1-carboxylic acid] | > 30000 |  |  | 
9 | NC(=O)[C@]12C[C@@H]3C[C@H](C1)[C@@H](NC(=O)C1(c4ccc(Cl)cc4)CC1)[C@@H](C3)C2 [(E)-4-({[1-(4-chlorophenyl)cyclopropyl]carbonyl}amino)adamantane-1-carboxamide] | > 30000 | 33 |  | 
10 | CC(C)(OCc1ccc(C(F)(F)F)cc1)C(=O)N[C@@H]1[C@@H]2C[C@@H]3C[C@H]1C[C@@](C(N)=O)(C3)C2 [(E)-4-[(2-methyl-2-{[4-(trifluoromethyl)benzyl]oxy}propanoyl)amino]adamantane-1-carboxamide] | > 10000 | 28 |  | 
11 | CC(C)(Oc1ccc(-n2cccn2)cn1)C(=O)N[C@@H]1[C@@H]2C[C@@H]3C[C@H]1C[C@@](C(N)=O)(C3)C2 [(E)-4-[(2-methyl-2-{[5-(1H-pyrazol-1-yl)pyridin-2-yl]oxy}propanoyl)amino]adamantine-1-carboxamide] | > 100000 | 30 |  | 
12 | NC(=O)OC12CC3CC(C1)C(NC(=O)CN1CCN(c4ccc(C(F)(F)F)cn4)CC1)C(C3)C2 (stereo not drawn) [(E)-4-[({4-[5-(trifluoromethyl)pyridin-2-yl]piperazin-1-yl}acetyl)amino]-1-adamantyl carbamate] | > 10000 | 150 |  | 
13 | O=C(O)C12CC3CC(C1)C(NC(=O)C1(c4ccc(Cl)cc4)CCC1)C(C3)C2 (stereo not drawn) [(E)-4-{[1-(4-chloro-phenyl)-cyclobutanecarbonyl]-amino}-adamantane-1-carboxylic acid] | > 10000 | 43 |  | 

Other lines, results leading:

Row | IC50 (human 11β-HSD-2; human enzyme, SPA) [nM] | IC50 ([1]; human enzyme, SPA) [nM] | IC50 (human 11β-HSD-2) [nM] | IC50 [1] [nM] | Structure (SMILES)
14 | > 8750 | 95 |  |  | CC1(C)C(=O)N(C2CCCCCC2)CC1COc1ccccc1 (stereo not drawn) [1-cycloheptyl-3,3-dimethyl-4-(phenoxymethyl)pyrrolidin-2-one]
15 | 18000 | 48 |  |  | CC(C)(Oc1ccc(Cl)cc1)C(=O)NC1C2CC3CC1CC(CS(=O)(=O)NCc1ccc(C(=O)O)cc1)(C3)C2 (stereo not drawn) [4-[({[((E)-4-{[2-(4-chlorophenoxy)-2-methylpropanoyl]amino}-1-adamantyl)methyl]sulfonyl}amino)methyl]benzoic acid]
16 | 8470 | 77 |  |  | CC12CCC(N3CC(COc4ccc(C#N)cn4)C(C)(C)C3=O)(CC1)CC2 (stereo not drawn) [6-{[4,4-dimethyl-1-(4-methylbicyclo[2.2.2]oct-1-yl)-5-oxopyrrolidin-3-yl]methoxy}nicotinonitrile]
17 | 1600 |  |  | 41 | CC1(C)C(=O)N(C2C3CC4CC2CC(C(N)=O)(C4)C3)CC1COc1ccc(-n2cncn2)cc1 (stereo not drawn) [(E)-4-(3,3-dimethyl-2-oxo-4-{[4-(1H-1,2,4-triazol-1-yl)phenoxy]methyl}pyrrolidin-1-yl) adamantane-1-carboxamide]
18 | 5270 | 29 |  |  | CC1(C)C(=O)N(C2C3CC4CC2CC(C#N)(C4)C3)CC1COc1ccc(C#N)cn1 (stereo not drawn) [(E)-4-(4-{[(5-cyanopyridin-2-yl)oxy]methyl}-3,3-dimethyl-2-oxopyrrolidin-1-yl) adamantane-1-carbonitrile]
19 | 6300 | 23 |  |  | CC1(C(=O)N[C@@H]2[C@@H]3C[C@@H]4C[C@H]2C[C@@](C(N)=O)(C4)C3)CCN(Cc2ccccc2Cl)C1=O (stereo partly drawn) [(E)-4-(aminocarbonyl)-2-adamantyl]-1-(2-chlorobenzyl)-3-methyl-2-oxopyrrolidine-3-carboxamide]
20 | 10000 |  |  |  | CC1(C(=O)N[C@@H]2[C@@H]3C[C@@H]4C[C@H]2C[C@@](C(N)=O)(C4)C3)CCN(Cc2cccc(Cl)c2)C1=O (stereo partly drawn) [(E)-4-(aminocarbonyl)-2-adamantyl]-1-(3-chlorobenzyl)-3-methyl-2-oxopyrrolidine-3-carboxamide]
21 | 12000 | 23 |  |  | Cc1ccccc1CN1CCC(C)(C(=O)NC2C3CC4CC(C3)C(C(N)=O)C2C4)C1=O (stereo not drawn) [(E)-4-(aminocarbonyl)-2-adamantyl]-3-methyl-1-(2-methylbenzyl)-2-oxopyrrolidine-3-carboxamide]
22 | 11000 | 44 |  |  | CC(C)(Oc1cccc(C(F)(F)F)c1)C(=O)NC1C2CC3CC1CC(C(N)=O)(C3)C2 (stereo not drawn) [(E)-4-({2-methyl-2-[3-(trifluoromethyl)phenoxy]propanoyl}amino)adamantane-1-carboxamide]
23 | 2600 | 40 |  |  | CC(C)(Oc1ccc(OC(F)(F)F)cc1)C(=O)NC1C2CC3CC1CC(C(N)=O)(C3)C2 (stereo not drawn) [(E)-4-({2-methyl-2-[4-(trifluoromethoxy)phenoxy]propanoyl}amino)adamantane-1-carboxamide]
24 | 90000 | 89 |  |  | NC(=O)C12CC3CC(C1)C(NC(=O)C1(Oc4ccc(Cl)cc4)CCC1)C(C3)C2 (stereo not drawn) [(E)-4-({[1-(4-chlorophenoxy)cyclobutyl]carbonyl}amino)adamantane-1-carboxamide]
25 | 1360 | 39 |  |  | CC1(C)C(=O)N(C2C3CC4CC2CC(C(N)=O)(C4)C3)CC1COc1ccc(C(F)(F)F)cn1 (stereo not drawn) [(E)-4-[3,3-dimethyl-2-oxo-4-({[5-(trifluoromethyl)pyridin-2-yl]oxy}methyl)pyrrolidin-1-yl]adamantane-1-carboxamide]
26 | 65000 | 68 |  |  | CCN(CC)S(=O)(=O)c1cc(Cl)ccc1OC(C)(C)C(=O)NC1C2CC3CC1CC(C(N)=O)(C3)C2 (stereo not drawn) [(E)-4-[(2-{4-chloro-2-[(diethylamino)sulfonyl]phenoxy}-2-methylpropanoyl)amino]adamantane-1-carboxamide]
27 | 35000 | 18 |  |  | CC(C)(Oc1ccc(O)cc1)C(=O)N[C@@H]1[C@@H]2C[C@@H]3C[C@H]1C[C@@](C(N)=O)(C3)C2 [(E)-4-{[2-(4-hydroxyphenoxy)-2-methylpropanoyl]amino}adamantane-1-carboxamide]
28 | 44000 |  |  |  | CC(C)(C(=O)N[C@@H]1[C@@H]2C[C@@H]3C[C@H]1C[C@@](C(N)=O)(C3)C2)c1ccc(-c2cccnc2)cc1 [(E)-4-{[2-methyl-2-(4-pyridin-3-ylphenyl)propanoyl]amino}adamantane-1-carboxamide]
29 | 37000 |  |  |  | CC(C)(C)OC(=O)Nc1ccc(OC(C)(C)C(=O)N[C@@H]2[C@@H]3C[C@@H]4C[C@H]2C[C@@](C(N)=O)(C4)C3)cc1 [tert-butyl 4-(2-{[(E)-5-(aminocarbonyl)-2-adamantyl]amino}-1,1-dimethyl-2-oxoethoxy)phenylcarbamate]
